Measured values from paper PMC5729930, “Bitopic fluorescent antagonists of the A2A adenosine receptor based on pyrazolo[4,3-e][1,2,4]triazolo[1,5-c]pyrimidin-5-amine functionalized congeners” (MedChemComm, 2017).
“And” between values parts separate entries of the source, which are not always exact repeats. Equal values may be shown once.

What was measured:
mA2AAR = molecular target: T1, mA2AAR (Mus musculus, UniProt Q60613); test: Competition radioligand binding, mA2AAR; conditions: mouse A2AAR, HEK-293 membranes, mean ± SEM; read-out: Affinity, Ki, A2A (m) (converted)
T1 construct: expressed in transfected cells; host or cells: HEK-293
Experimental: (§1) The affinity of the amine congeners and other antagonists was measured using standard radioligand binding assays for hA1, A2A and A3ARs (Table 1).[1],[13],[14],[22] Membranes of human embryonic kidney (HEK)293 cells expressing the AR of interest were used in the assay. Primary amine congeners 6a–6d containing spacers of 2–5 methylenes were similar in terms of hA2AAR affinity (Ki 6–9 nM), with the butylamino congener 6c displaying the highest A2AAR selectivity in the series. The affinity of this compound for the hA3AR was determined to be 6.0 μM, with only slightly higher hA1AR affinity. Homologation to 6 methylenes in compound 6e lowered A2AAR affinity. […] No dependence of the affinity on the chain length was evident when comparing AlexaFluor647 conjugates 9 and 10.
(§2) Cell culture for membrane binding assays and flow cytometry: HEK-293 cells stably expressing the A2AAR were grown in Dulbecco’s Modified Eagle’s Medium (DMEM) with 10% FBS, 100 units/ml penicillin, […] streptomycin, 2 mM L-glutamine and 0.500 mg/mL G418 Sulfate (Geneticin). […]
(§3) Radioligand binding assays: Cell membranes were prepared as reported.1
(§4) Binding assays were carried out using standard radioligands and membrane preparations from HEK-293 cells stably expressing the human (h) A1, A2A or A3ARs or mouse (m) A1, A2A or A3ARs. The radioligands used were: A1AR, [3H]8-cyclopentyl-1,3-dipropylxanthine 14; A2AAR, [3H]2; A3AR, [125I]N6-(4-amino-3-iodobenzyl)adenosine-5′-N-methyluronamide 16. The radioligand for archival A2AAR affinity data presented in Table 1 was [3H]2-[p-(2-carboxyethyl)phenyl-ethylamino]-5′-N-ethylcarboxamidoadenosine 15. Nonspecific binding was determined using 10 µM 8-[4-[[[[(2-aminoethyl)amino]carbonyl]methyl]oxy]phenyl]-1,3-dipropylxanthine 17 (A1AR and A2AAR) or 10 µM adenosine-5′-N-ethyluronamide 18 (A3AR). HEK-293 cells expressing recombinant mA1, A2A, or A3AR […]
(§5) Protein was determined as reported.2 In all the binding experiments, IC50 values and Ki values were calculated using GraphPad Prism software (San Diego, CA). Values are expressed as mean±SEM. […]
(§6) Med. Chem. Comm., 2015, 6:555-563.
(§7) 2. Bradford, M. M. A rapid and sensitive method for the quantitation of microgram quantities of protein utilizing the principle of protein -dye binding. Anal. Biochem. 1976, 72, 248-254.

mA1AR = molecular target: T2, mA1AR (Mus musculus, UniProt Q60612); test: Competition radioligand binding, mA1AR; conditions: for inhibition at 10 µM: mouse A1AR, percent inhibition at 10 μM
T2 construct: expressed in transfected cells; host or cells: HEK-293
T2 sequence (Q60612 1-326): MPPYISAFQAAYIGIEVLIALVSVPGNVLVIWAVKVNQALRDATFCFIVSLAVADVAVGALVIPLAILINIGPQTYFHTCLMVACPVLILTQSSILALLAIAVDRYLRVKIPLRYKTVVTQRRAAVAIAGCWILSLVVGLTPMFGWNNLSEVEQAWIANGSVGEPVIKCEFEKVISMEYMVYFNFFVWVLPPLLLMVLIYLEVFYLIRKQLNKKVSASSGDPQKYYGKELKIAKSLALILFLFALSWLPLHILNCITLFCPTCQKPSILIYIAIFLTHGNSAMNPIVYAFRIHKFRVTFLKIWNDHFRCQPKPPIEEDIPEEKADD
Experimental: as §1, with “10. […]” for “10.”
as §3, §4, §5, §6, §7

mA3AR = molecular target: T3, mA3AR (Mus musculus, UniProt Q61618); test: Competition radioligand binding, mA3AR; conditions: for inhibition at 10 µM: mouse A3AR, percent inhibition at 10 μM, read-out: % inhib, A3 (m) (converted)
T3 construct: expressed in transfected cells; host or cells: HEK-293
T3 sequence (Q61618 1-319): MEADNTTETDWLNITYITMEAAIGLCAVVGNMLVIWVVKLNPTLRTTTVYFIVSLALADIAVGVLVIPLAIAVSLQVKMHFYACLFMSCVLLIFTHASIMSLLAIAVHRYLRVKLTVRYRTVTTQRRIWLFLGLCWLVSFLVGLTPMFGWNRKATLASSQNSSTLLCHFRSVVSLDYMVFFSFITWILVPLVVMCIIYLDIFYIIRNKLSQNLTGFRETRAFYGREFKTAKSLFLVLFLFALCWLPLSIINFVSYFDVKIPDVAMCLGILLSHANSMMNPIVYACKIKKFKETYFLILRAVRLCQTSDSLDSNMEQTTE
Experimental: as §1, with “10. […]” for “10.”
as §3, §4, §5, §6, §7

A1AR = molecular target: T4, A1AR (Homo sapiens, UniProt P30542); test: Competition radioligand binding, hA1AR ([3H]DPCPX); conditions: [3H]DPCPX 0.5 nM; for Ki: HEK-293 membranes, 1 h 25 °C, mean ± SEM, read-out: Affinity, Ki, A1
T4 construct: expressed in transfected cells
T4 sequence (P30542 1-326): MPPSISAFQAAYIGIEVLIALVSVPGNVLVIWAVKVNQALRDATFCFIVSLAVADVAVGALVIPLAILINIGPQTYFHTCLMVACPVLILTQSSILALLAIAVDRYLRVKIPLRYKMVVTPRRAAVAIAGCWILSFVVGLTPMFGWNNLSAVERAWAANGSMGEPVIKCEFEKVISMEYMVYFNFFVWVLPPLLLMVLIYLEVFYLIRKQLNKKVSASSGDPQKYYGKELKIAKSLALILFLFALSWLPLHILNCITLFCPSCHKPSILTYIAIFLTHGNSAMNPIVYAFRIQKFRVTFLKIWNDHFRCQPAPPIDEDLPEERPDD
Experimental: as §1, with “10. […]” for “10.”
as §3, §4, §5, §6, §7

A2AAR = molecular target: T5, A2AAR (Homo sapiens, UniProt P29274); test: Competition radioligand binding, hA2AAR ([3H]ZM241385 or [3H]CGS21680); conditions: for Ki / fold weaker A2AAR affinity with respect to the parent amino derivative 6c: human A2AAR; for Ki: HEK-293 membranes, [3H]ZM241385 1.0 nM, 1 h 25 °C, mean ± SEM, read-out: Affinity, Ki, A2A
T5 construct: expressed in transfected cells
Experimental: as §1
Fig. 1 Antagonist radioligand ([^3H]2, 1.0 nM) binding inhibition curves for the hA2AAR for four antagonist fluorescent conjugates. Compound numbers: MRS7322 9, MRS7395 10, MRS7396 11 and MRS7416 12. Membranes from HEK-293 cells expressing the hA2AAR were used, and their incubation was performed for 1 h at 25 °C. Results are expressed as the mean ± SEM.
as §2, §3, §4, §5, §6, §7

T1 sequence (Q60613 whole entry): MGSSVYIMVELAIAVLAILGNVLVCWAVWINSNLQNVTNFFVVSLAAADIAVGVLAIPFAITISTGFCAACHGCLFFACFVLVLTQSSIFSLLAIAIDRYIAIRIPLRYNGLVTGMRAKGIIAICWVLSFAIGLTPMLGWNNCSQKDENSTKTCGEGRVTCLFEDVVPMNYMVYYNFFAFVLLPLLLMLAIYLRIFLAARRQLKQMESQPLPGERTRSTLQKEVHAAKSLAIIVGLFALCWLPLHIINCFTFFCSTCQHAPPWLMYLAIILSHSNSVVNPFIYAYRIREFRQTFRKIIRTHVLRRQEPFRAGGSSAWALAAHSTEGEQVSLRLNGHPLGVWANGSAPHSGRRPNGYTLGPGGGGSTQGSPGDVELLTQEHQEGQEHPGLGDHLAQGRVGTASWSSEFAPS
T5 sequence (P29274 whole entry): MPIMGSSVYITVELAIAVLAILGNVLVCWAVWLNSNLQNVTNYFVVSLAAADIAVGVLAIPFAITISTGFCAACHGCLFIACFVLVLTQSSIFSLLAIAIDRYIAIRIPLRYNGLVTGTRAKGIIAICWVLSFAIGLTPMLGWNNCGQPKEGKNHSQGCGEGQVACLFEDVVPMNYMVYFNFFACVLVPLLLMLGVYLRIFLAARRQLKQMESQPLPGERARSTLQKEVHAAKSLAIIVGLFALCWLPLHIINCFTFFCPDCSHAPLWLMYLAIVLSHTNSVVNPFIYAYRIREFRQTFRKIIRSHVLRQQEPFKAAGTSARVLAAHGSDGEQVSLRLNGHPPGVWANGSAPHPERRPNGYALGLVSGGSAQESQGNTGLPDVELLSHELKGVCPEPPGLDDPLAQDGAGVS

## N.Nc1nc2c(cnn2CCCc2ccc(OCc3ccc(S(=O)(=O)O)cc3)cc2)c2nc(-c3ccco3)nn12 [compound 13]
mA2AAR
  Ki: 64.1 nM
mA1AR
  inhibition at 10 µM: 21%
mA1AR; result in words
  binding to the mA1AR: insignificant
mA3AR
  inhibition at 10 µM: 4%
mA3AR; result in words
  binding to the mA3AR: insignificant
A1AR
  Ki: 4190 ± 750 nM
A2AAR; hA2AAR vs hA1AR binding
  A2AAR selectivity compared to the hA1AR: 671 fold
A2AAR; hA2AAR vs hA3AR binding
  A2AAR selectivity compared to the hA3AR: 426 fold
A2AAR
  Ki: 6.2 nM

## Nc1nc2c(cnn2CCCc2ccc(OCC(=O)NCCCCNC(=O)CCCCCNC(=O)COc3ccc(/C=C/C4=[N+]5C(=Cc6ccc(-c7cccs7)n6[B-]5(F)F)C=C4)cc3)cc2)c2nc(-c3ccco3)nn12 [compound 11]
mA2AAR
  Ki: 2.1 nM and 2.09 nM
mA1AR
  inhibition at 10 µM: 0%
mA3AR
  inhibition at 10 µM: 2%
A1AR; percent inhibition at 10 μM
  inhibition at 10 µM: 40%
A2AAR
  fold weaker A2AAR affinity with respect to the parent amino derivative 6c: 4 fold
  Ki: 24.6 ± 17.6 nM

## CCN(CC)CC.CCN(CC)CC.N=c1ccc2c(-c3ccc(C(=O)NCCCCNC(=O)COc4ccc(CCCn5ncc6c5nc(N)n5nc(-c7ccco7)nc65)cc4)cc3C(=O)O)c3ccc(N)c(S(=O)(=O)O)c3oc-2c1S(=O)(=O)O [compound 12]
mA2AAR
  Ki: 585 nM
mA1AR
  inhibition at 10 µM: 0%
mA3AR
  inhibition at 10 µM: 5%
A1AR
  Ki: 1680 ± 470 nM
A2AAR
  fold weaker A2AAR affinity with respect to the parent amino derivative 6c: 4 fold
  Ki: 30.3 ± 4.9 nM
